The values below come from article PMC4526345 (Biochemistry, 2015).

In one experiment the target is Mycoplana ramosa APAH (Mycoplana ramosa, UniProt Q48935). In words: APAH inhibition, fluorimetric Fluor-de-Lys assay. Conditions: also evaluated after 30 and 60 min incubation times. It is filed as biochemical.
Experiment [1] has as its target T1, HDAC8 (Homo sapiens, UniProt Q9BY41).
T1 sequence (Q9BY41 1-377): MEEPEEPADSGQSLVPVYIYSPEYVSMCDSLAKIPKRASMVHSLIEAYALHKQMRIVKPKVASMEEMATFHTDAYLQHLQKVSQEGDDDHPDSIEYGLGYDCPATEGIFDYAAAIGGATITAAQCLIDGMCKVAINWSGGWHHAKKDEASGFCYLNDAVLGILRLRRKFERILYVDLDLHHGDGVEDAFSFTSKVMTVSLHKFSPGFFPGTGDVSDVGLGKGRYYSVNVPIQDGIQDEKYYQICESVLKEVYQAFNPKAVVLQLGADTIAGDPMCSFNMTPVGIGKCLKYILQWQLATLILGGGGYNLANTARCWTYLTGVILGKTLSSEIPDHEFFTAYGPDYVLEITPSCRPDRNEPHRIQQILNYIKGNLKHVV
The experiment can be described thus: Deacetylation of N^8-acetylspermidine by HDAC8. It counts as biochemical. Particulars: overnight incubation with HDAC8; data not shown.

The subject of experiment [2] is HDAC8. Particulars: read-out: IC50 HDAC8; cited from earlier work.

Chain of Mycoplana ramosa APAH (Q48935 whole entry): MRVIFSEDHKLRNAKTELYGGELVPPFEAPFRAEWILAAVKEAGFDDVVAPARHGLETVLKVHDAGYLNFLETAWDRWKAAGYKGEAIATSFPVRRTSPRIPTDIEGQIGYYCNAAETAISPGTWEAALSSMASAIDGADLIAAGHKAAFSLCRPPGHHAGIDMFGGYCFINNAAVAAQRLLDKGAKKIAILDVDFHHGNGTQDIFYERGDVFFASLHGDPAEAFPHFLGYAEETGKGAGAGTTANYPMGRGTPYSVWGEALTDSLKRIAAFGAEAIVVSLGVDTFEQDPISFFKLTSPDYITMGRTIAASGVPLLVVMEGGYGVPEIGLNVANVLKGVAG

As for `Cl.NCCCCCCC(=O)NO` [Compound 6, 7-Amino-N-hydroxyheptanamide hydrochloride salt], on Mycoplana ramosa APAH, the “time-dependent inhibition of APAH” value was “not observed”.
`CC(=O)NCCCCNCCCN` [N^8-acetylspermidine]: the “spermidine product formed by HDAC8” value at HDAC8 [1] was “does not yield any measurable spermidine product”.
On to largazole thiol, for which the IC50 in the experiment with HDAC8 [2] was 102 nM.

The term IC50 denotes the concentration that gives 50% inhibition.
